Columns and labels:
[1] = Rhenium molecular probe-lipid overlay (dot blot); type: binding; conditions: FIG. 7
Experimental: (§1) The experimental protocol probe-lipid overlay was as follows: 50 μM of each lipids was loaded on to PVDF membranes (Perkin Elmer, USA), which were then incubated with molecular probes. PhenCyano and PhenPyridyl were assessed against eleven lipids including; sphingomyelin (Cat # S0756, Sigma Aldrich, USA), sphingosine (Cat # S7049; Sigma Aldrich, USA), L-phosphatidylethanolamine (Cat # P7943, Sigma Aldrich, USA), monosialodanglioside (GM1; Cat # G7641, Sigma Aldrich, USA), oleoly-L-?-lysophosphatidic acid (Cat # L7260, Sigma Aldrich, USA), palmitic acid (Cat # P5917, Sigma Aldrich, USA), sphingomyelin (Cat # S0756, Sigma Aldrich, USA), sphingosine (Cat # S7049; Sigma Aldrich, USA), L-?-phosphatidylethanolamine (Cat # P7943, Sigma Aldrich, USA), monosialodanglioside (GM1; Cat # G7641, Sigma Aldrich, USA), progesterone (Cat #102722, MP Biomedical, USA), ceramide (Cat # C2137; Sigma Aldrich, USA), triacylglycerol mix C2-C10 (Cat #17810, Sigma Aldrich, USA) and cholesteryl acetate (Cat #151114; Sigma Aldrich, USA).
(§2) Lipids were dissolved in ethanol, methanol or isopropanol for loading depending on solubility. Following lipid loading, membranes were left to dry for 20-30 minutes, then they were washed for 10 minutes in cold 10% ethanol, before they were incubated with 10 μM solution of each Rhenium molecular probe in cold 10% ethanol for one hour. Membranes were than washed four times for 10 minutes in cold 10% ethanol prior to imaging. Imaging was performed on an Image Quant Las 4000 (GE, Sweden) luminescent image analyser, with the Rhenium molecular probe being detected by excitation at 460 nm using an epi-blue light source, and detected using an 575 nm ethidium bromide filter.

[2] = test system: Drosophila fat body tissue; test: Live staining and confocal imaging of explanted fat body tissue; type: cell-based
Experimental: All stocks were maintained in standard medium at 25° C. The yeast GAL4-UAS system was used for targeted gene expression (Brand and Perrimon, 1993). Fat-body specific expression of transgenes from the UAS were driven by CG-GAL4 (Asha et al., 2003). Transgenic UAS-Atg9RNAi stocks (#34901) and UAS-TorTED stocks (#7013) were obtained from the Bloomington Drosophila Stock Centre (Indiana University, IN, USA). Atg8aGFP was driven by an endogenous promoter (Kelso et al., 2004).
Bromophenol-blue was added to the fly media and used to define different developmental time points. […] Newly formed white pupae (0 h PF), were isolated onto moist filter paper and incubated at 25° C. for either two hours (+2 h PF) or four hours (+4 h PF).
Third instar larvae at −8 h PF were removed from standard media (normally feeding at this developmental stage) and placed on filter paper either soaked in 5% (w/v) sucrose (for amino acid deprivation), or 5% (w/v) tryptone pancreatic digest of casein (BD Bioscience USA; for carbohydrate deprivation), or soaked in water (for complete starvation). Larvae were incubated for 4-5 hours prior tissue isolation and imaging.
Fat body tissue was dissected into PBS from Drosophila larvae or pupae. The fat body tissue was either incubated with 10 μM tricarbonyl phenanthrolin (4-cyanophenyltretrazolato) Rhenium (I) in PBS for 15 minutes at room temperature, or LysoTracker® green (according to manufacturer instructions; Invitrogen, USA) and then mounted in carbomer-940 (Snowdrift farm, Tucson, USA) based optical coupling gel to prevent dehydration prior to imaging (Rothstein et al., 2006). For Oil Red O staining, fat body tissue was fixed in 4% (v/v) paraformaldehyde for 20 minutes, and incubated in 1/100 Oil Red 0 for 30 minutes and then washed in PBS before mounting in 80% glycerol.
A Ziess LSM710 META NLO confocal microscope (Zeiss, Germany), supplemented with a two-photon Mai-Tai® (tunable Ti:Sapphire femtosecond pulse laser, 710-920 nm, Spectra-Physics, Australia) was used for imaging. The images were acquired using a Plan-APOCHROMAT 63×/NA1.4 oil immersion objective. The Rhenium probe was excited at 830 nm using the two-photon pulse laser and detect at 600-654 nm. LysoTracker® green was imaged by excitation at 488 nm and detected at 497-558 nm. Atg8a-GFP was imaged with the Rhenium probe by excitation at 830 nm and resolved using spectral un-mixing using the Zen software package (based on spectral figure-printing of the two components). The Rhenium probe images and co-location analysis involved at least five separate images from five independent biological replicates, and one representative image from each treatment was selected for presentation (containing a minimum of 2 cells). For image quantification, two regions of interest (ROI) were selected at random with an area of 2500 μm^2 and the number of fluorescent puncta within the area counted, to give a minimum of 10 counts per treatment group. Comparison of means was performed by ANOVA with a Tukey post hoc tested in GraphPad Prism V.6.01 (USA).

[3] = Rhenium molecular probe-lipid overlay (dot blot); type: binding; design: key to interaction with Sphingomyline (dot blot): ✓ indicates a positive interaction; x indicates no interaction
Experimental: as §1
(§3) All other molecular probes were assessed against a panel of six lipids including; sphingomyelin (Cat # S0756, Sigma Aldrich, USA), sphingosine (Cat # S7049; Sigma Aldrich, USA), L-?-phosphatidylethanolamine (Cat # P7943, Sigma Aldrich, USA), monosialodanglioside (GM1; Cat # G7641, Sigma Aldrich, USA), sphingomyelin (Cat # S0756, Sigma Aldrich, USA), sphingosine (Cat # S7049; Sigma Aldrich, USA), L-?-phosphatidylethanolamine (Cat # P7943, Sigma Aldrich, USA), monosialodanglioside (GM1; Cat # G7641, Sigma Aldrich, USA) and triacylglycerol mix C2-C10 (Cat #17810, Sigma Aldrich, USA).
as §2

[4] = Rhenium molecular probe-lipid overlay (dot blot); type: binding; design: key to interaction with Cholestrol (dot blot): ✓ indicates a positive interaction; x indicates no interaction
Experimental: as §1, §3, §2

[5] = Rhenium molecular probe-lipid overlay (dot blot); type: binding; design: key to interaction with Lysophosphatidic acid (dot blot): ✓ indicates a positive interaction; x indicates no interaction
Experimental: as §1, §2

[6] = 10 μM probe, 50 μM lipid on PVDF membrane

N#Cc1ccc(-c2nn[n]([Re](=[C]=O)(=[C]=O)=[C]=O)n2)cc1.c1cnc2c(c1)ccc1cccnc12 [PhenCyano, Triscarbonyl phenanthroline (4-cyanophenyltetrazolato)Rhenium(I)]
interaction with cholesterol ester (cholesteryl acetate), in words [1]: no interaction detected
probe distribution in fat body ([2]; 0 h PF, 10 μM probe, 15 minutes): most of the Rhenium probe was still inside lipid droplets
probe distribution in fat body ([2]; +2 h PF, 10 μM probe, 15 minutes): dramatic reduction in the amount of Rhenium probe interacting with lipid droplets
vesicles staining with the probe that were also Atg8a-GFP positive ([2]; −4 h PF larvae starved (amino acid and sugar deprivation)): approximately 90±11%
probe distribution in fat body ([2]; −4 h PF, 10 μM probe, 15 minutes): interacted with the core of lipid droplets
probe distribution in fat body ([2]; −8 h PF, dominant negative TorTED expression): almost all of the Rhenium probe in LysoTracker® green positive vesicles
interaction with Sphingomyline (dot blot) [3, 6]: ✓
affinity towards sphingomyelin, in words ([3]; FIG. 7 / FIG. 8): some affinity
interaction with Cholestrol (dot blot) [4, 6]: ✓
affinity towards cholesterol, in words ([4]; FIG. 7 / FIG. 8): some affinity
interaction with Lysophosphatidic acid (dot blot) [5, 6]: ✓
affinity towards lysophosphatidic acid, in words ([5]; FIG. 7): some affinity
